Earlier results, collected in publication PMC7247160, “Inhibitors of DNA Glycosylases as Prospective Drugs” (International Journal of Molecular Sciences, 2020).
pIC50, pKd, pKi: −log10 of the molar value. Read-outs that look alike come from different tables or passages of the source.

Experiments:
[1] = tested on: UNG; settings: for pIC50: UNG, human, read-out: I50
[2] = tested on: Fpg; settings: for Fpg inhibition (in words): free damaged base analogs
[3] = tested on: Fpg; settings: E. coli
[4] = tested on: Fpg; design: method as in PMID 25143530; settings: Lactococcus lactis, read-out: I50
[5] = target: UNG
[6] = tested on: UNG; remark: listed apart in the source
[7] = tested on: D4/A20 complex; settings: UNG (D4), vaccinia virus; read-out: IC50 for DNA polymerase activity in the presence of the D4/A20 complex
[8] = tested on: OGG1; settings: OGG1, human; read-out: I50
[9] = tested on: NEIL1; settings: NEIL1, human; read-out: I50
[10] = tested on: NTHL1; design: method as in PMID 23138988; settings: NTHL1, human; read-out: I50
[11] = tested on: NEIL2; design: method as in PMID 23138988; settings: NEIL2, human; read-out: I50
[12] = tested on: MPG; design: method as in PMID 25650313; settings: human, read-out: I50
[13] = tested on: MTH1; settings: MTH1, human; read-out: I50
[14] = tested on: OGG1; design: method as in PMID 30442810; settings: OGG1, mouse; read-out: I50
[15] = tested on: OGG1; design: method as in PMID 30442810; settings: mouse model
[16] = tested on: Nei2; design: method as in PMID 28955788; settings: Nei2, Mycobacterium tuberculosis
[17] = target: MutY; settings: read-out: Kd or Ki directly measured
[18] = tested on: UNG; design: method as in PMID 23400284; settings: species not specified, read-out: I50
[19] = read-out: Kd or Ki directly measured

In the case of O=C(O)c1cccc(/C=N/OCC(CO/N=C/c2cc(=O)[nH]c(=O)[nH]2)CO/N=C/c2cc(=O)[nH]c(=O)[nH]2)c1, the pIC50 ([1]; triskelion inhibitors) is given as 6.05.
In the case of O=c1cc(/C=N/OCC(CO/N=C/c2ccc(O)c(O)c2)CO/N=C/c2cc(=O)[nH]c(=O)[nH]2)[nH]c(=O)[nH]1, the pIC50 ([1]; triskelion inhibitors) is given as 6.05.
For 2-thioxanthine, the pIC50 ([2]; oxidizes zinc finger cysteines, not a true inhibitor, read-out: IC50, ability to suppress Fpg activity) is given as 4.00 to 5.00, the pIC50 ([3]; read-out: I50) is given as 4.77 and the pIC50 [4] is given as 4.00.
In the case of N#C[C@]1(n2ccc(=O)[nH]c2=O)C[C@H](O)[C@@H](COP(=O)(O)OP(=O)(O)OP(=O)(O)O)O1 [1′-cyano-2′-deoxyuridine triphosphate], the Ki ([1]; human UNG, nucleotide incorporated into DNA) is listed as “nanomolar” and the Ki ([5]; E. coli Ung, nucleotide incorporated into DNA) is listed as “nanomolar”.
For CN(C=O)c1c(N)nc(N)[nH]c1=O [2,6-diamino-4-oxo-5-(N-methylformamido)pyrimidine], the “Fpg inhibition (in words)” value [2] is given as “weakly inhibited”.
In the case of Nc1cc(N)c(N=O)c(N)n1 [5-nitroso-2,4,6-triaminopyridine], the “Fpg inhibition (in words)” value [2] is listed as “weakly inhibited”.
In the case of Nc1cc(=O)[nH]c(N)c1N=O [5-nitroso-4,6-diamino-2-oxopyridine], the “Fpg inhibition (in words)” value [2] is given as “weakly inhibited”.
For CCCCCCCCc1ccc(Nc2cc(=O)[nH]c(=O)[nH]2)cc1 [C00001 R1 = n-octyl R2 = H, 6-(p-n-octylanilino)uracil], the pIC50 [1] is listed as < 3.52, the pIC50 ([6]; UNG, HSV1, read-out: I50) is listed as 5.10 and the pIC50 ([6]; herpes simplex type 1 UNG, read-out: IC50 for the viral enzyme) is listed as ~5.10.
In the case of O=c1cc(/C=N/OCCCO/N=C/c2cc(O)c(O)cc2Br)[nH]c(=O)[nH]1 [C00002 R = Br], the pIC50 ([1]; bipartite inhibitors) is given as 4.40.
In the case of O=c1cc(/C=N/OCCCO/N=C/c2cc(O)c(O)cc2Cl)[nH]c(=O)[nH]1 [C00002 R = Cl], the pIC50 ([1]; bipartite inhibitors) is listed as 4.80.
For O=c1cc(/C=N/OCCCO/N=C/c2cc(O)c(O)cc2F)[nH]c(=O)[nH]1 [C00002 R = F], the pIC50 ([1]; bipartite inhibitors) is listed as 5.57.
In the case of O=c1cc(/C=N/OCCCO/N=C/c2ccc(O)c(O)c2)[nH]c(=O)[nH]1 [C00002 R = H], the pIC50 ([1]; bipartite inhibitors) is listed as 5.96.
In the case of O=c1cc(/C=N/OCCCO/N=C/c2cc(O)c(O)cc2[N+](=O)[O-])[nH]c(=O)[nH]1 [C00002 R = NO2], the pIC50 ([1]; bipartite inhibitors) is given as 4.40.
For O=c1cc(/C=N/OCCCO/N=C/c2cc(O)c(O)cc2O)[nH]c(=O)[nH]1 [C00002 R = OH], the pIC50 ([1]; bipartite inhibitors) is given as 6.59.
In the case of O=C(O)c1cccc(C=NOCCON=Cc2cc(=O)[nH]c(=O)[nH]2)c1 [C00003 R1 = C00004 R2 = COOH, R3 = H], the pIC50 ([1]; bipartite inhibitors) is listed as 4.40.
In the case of O=C(O)c1cccc(C=NOCCCNCc2cc(=O)[nH]c(=O)[nH]2)c1 [C00003 R1 = C00005 R2 = COOH, R3 = H], the pIC50 ([1]; bipartite inhibitors) is given as 5.80.
In the case of O=C(O)c1cccc(CNCCCON=Cc2cc(=O)[nH]c(=O)[nH]2)c1 [C00003 R1 = C00006 R2 = COOH, R3 = H], the pIC50 ([1]; bipartite inhibitors) is given as 4.00.
For O=C(O)c1cccc(CNCCCCNCc2cc(=O)[nH]c(=O)[nH]2)c1 [C00003 R1 = C00007 R2 = COOH, R3 = H], the pIC50 ([1]; bipartite inhibitors) is listed as 3.50.
In the case of O=C(O)c1ccc(C=NOCCON=Cc2cc(=O)[nH]c(=O)[nH]2)cc1 [C00003 R1 = C00008 R2 = H, R3 = COOH], the pIC50 ([1]; bipartite inhibitors) is given as 5.22.
In the case of O=c1cc(/C=N/OCC(CO/N=C/c2ccc(O)c(O)c2)CO/N=C/c2ccc(O)c(O)c2)[nH]c(=O)[nH]1 [C00009 R1 = R2 = 3,4-dihydroxyphenyl], the pIC50 ([1]; triskelion inhibitors) is listed as 5.80.
In the case of O=C(O)c1cccc(/C=N/OCC(CO/N=C/c2cccc(C(=O)O)c2)CO/N=C/c2cc(=O)[nH]c(=O)[nH]2)c1 [C00009 R1 = R2 = 3-carboxyphenyl], the pIC50 ([1]; triskelion inhibitors) is listed as 5.77.
For Oc1ccc(NCc2ccccc2OCc2ccccc2)cc1 [C00012], the pIC50 [7] is listed as 5.29.
For NNC(=O)c1sc2cccc(Cl)c2c1Cl [C00018], the pIC50 [8] is given as 6.66.
In the case of O=C(NN=C1CCCCC1)c1cc2ccccc2cc1O [C00022], the pIC50 [8] is listed as 6.47.
In the case of NC(=O)c1cccc(-c2ccc(S(=O)(=O)Nc3ccc4c(c3)N(C(=O)C3CC3)CCC4)cc2)c1 [C00025], the pIC50 [8] is listed as 7.23.
In the case of CCn1cnc2c(Nc3cccc(C)c3)nc(N[C@@H]3CCCC[C@@H]3N)nc21 [C00027], the pIC50 [9] is given as 4.60.
In the case of Cc1cc(/C=C/C#N)cc(C)c1Nc1nc(Nc2ccc3scnc3c2)c2nc[nH]c2n1 [C00028 R = C00029], the pIC50 [9] is given as 5.40.
In the case of Cc1nc2ccc(Nc3nc(Nc4c(C)cc(/C=C/C#N)cc4C)nc4[nH]cnc34)cc2s1 [C00028 R = C00030], the pIC50 [9] is listed as 5.10.
For Cc1cc(/C=C/C#N)cc(C)c1Nc1nc(Nc2ccc3c(c2)CCC3)c2nc[nH]c2n1 [C00028 R = C00031], the pIC50 [9] is listed as 5.05.
For Cc1cc(/C=C/C#N)cc(C)c1Nc1nc(Nc2ccc3c(c2)OCO3)c2nc[nH]c2n1 [C00028 R = C00032], the pIC50 [9] is given as 5.00.
In the case of Nc1c(S(=O)(=O)O)cc(Nc2ccc(Nc3nc(Cl)nc(Nc4ccccc4S(=O)(=O)O)n3)c(S(=O)(=O)O)c2)c2c1C(=O)c1ccccc1C2=O [Cibacron Blue F3GA], the pKi [3, 19] is listed as 8.30.
For O=C(O)/C=C/C(=O)CC(=O)CC(=O)O [Fumarylacetoacetate], the pIC50 [10] is listed as 6.00, the pIC50 [9] is listed as 8.22 and the pIC50 [11] is listed as 7.49. For the same compound, the pIC50 [8] was 6.00.
In the case of O=c1c(O)c(-c2ccc(O)cc2O)oc2cc(O)cc(O)c12 [Morin], the pIC50 [12] is given as 5.59.
In the case of Cc1cnc(N)nc1CCCNC(=O)c1cccc(-c2ccc(S(=O)(=O)Nc3ccc4c(c3)N(C(=O)C3CC3)CCC4)cc2)c1 [SU0383], the pIC50 [13] is listed as 7.47 and the pIC50 [8] is listed as 6.31.
In the case of O=C(Nc1ccc(I)cc1)N1CCC(n2c(=O)[nH]c3c(Br)cccc32)CC1 [TH5487], the pIC50 [14] is listed as 6.47 and the “Effect on inflammatory response” value [15] is listed as “downregulates the inflammatory response”.
For CCCCCc1cc(O)cc2c1Oc1cc(O)cc(C(=O)CCCC)c1C(=O)O2 [norlobaric acid], the pIC50 ([16]; read-out: I50) is listed as 4.38 and the pKi [16, 19] is listed as 7.13.
In the case of Cc1ccc(C(=O)Nc2ccc(S(=O)(=O)O)c3cc(S(=O)(=O)O)cc(S(=O)(=O)O)c23)cc1NC(=O)c1cccc(NC(=O)Nc2cccc(C(=O)Nc3cc(C(=O)Nc4ccc(S(=O)(=O)O)c5cc(S(=O)(=O)O)cc(S(=O)(=O)O)c45)ccc3C)c2)c1 [suramin], the pKd [17] is given as 4.80.
In the case of gentamicin, the pIC50 [18] is given as 2.82 and the pIC50 ([5]; UNG, E. coli, read-out: I50) is given as 3.38.
